{
  "source": "patent US20030129629A1",
  "about": "“Methods and compositions for the identification, assessment, prevention, and therapy of human cancers” (Millennium Pharmaceuticals, Inc., priority 2000, published 2003)",
  "test_system": "60 cancer cell lines (NCI 60 cancer cell line series)",
  "assay": "NCI-DTP in vitro cancer screen, sulforhodamine B (SRB) growth inhibition, 48 hour exposure",
  "assay_type": "cell-based, human",
  "experimental": "Cancer Cell Line Preparation. Sixty cancer cell lines were obtained from the National Cancer Institute Developmental Therapeutics Program (NCI-DTP). Procedures for growing cells and testing compounds have been described previously (Scudiero et al., Cancer Res. 1988, 48:4827-4833; Stinson et al., Anticancer Res.; Myers et al., Electrophoresis 1997, 18:647-653). Cells are plated on day 0 at a density individualized for each cell line so that they will generally be sub-confluent at the end of the assay period. On day 1, a compound is added in the format for a duplicate-well, 5-dose, ten-fold interval dose response study.\nNo-drug, no-cell and no-growth controls are included. On day 3 the cells are processed for staining with sulforhodamine B (SRB), which reflects the amount of cell mass present at the end of a 48 hour exposure to the test agent. From dose response curves based on the SRB data, various parameters can be determined. […] More precisely, the quantity used in the calculation to be described is the potency measure −log{GI50}.\nActivity database (A). […] This subset of compounds was selected from the larger 23,000 compound database available from the DTP. The compounds were selected on the basis of their known mechanism of action and chemical structure. The average potency −log{GI50} was extracted from the comma-delimited text files available through the Web at http://www.nci.nih.gov/intra/lmp/jnwbio.html. Subsequently, these −log{GI50} values were inspected manually and classified as indicating either Low, Medium or High sensitivity to each compound.",
  "data": [
    {"smiles": "NC(=O)NO", "note": "[Hydroxyurea]", "values": [
      {"measurement": "classification of cell line as Low(1), Medium(2), High(3) sensitivity to compound", "setting": "Breast BT-549 CL5013", "result": 1},
      {"measurement": "classification of cell line as Low(1), Medium(2), High(3) sensitivity to compound", "setting": "Breast HS-578T CL5006", "result": 2},
      {"measurement": "classification of cell line as Low(1), Medium(2), High(3) sensitivity to compound", "setting": "Breast MCF7(I) CL5001", "result": 2},
      {"measurement": "classification of cell line as Low(1), Medium(2), High(3) sensitivity to compound", "setting": "Breast MCF7/ADRr CL5002", "result": 2},
      {"measurement": "classification of cell line as Low(1), Medium(2), High(3) sensitivity to compound", "setting": "Breast MDA-MB-231 CL5005", "result": 1},
      {"measurement": "classification of cell line as Low(1), Medium(2), High(3) sensitivity to compound", "setting": "Breast MDA-MB-435 CL5011", "result": 1},
      {"measurement": "classification of cell line as Low(1), Medium(2), High(3) sensitivity to compound", "setting": "Breast MDA-N CL5012", "result": 1},
      {"measurement": "classification of cell line as Low(1), Medium(2), High(3) sensitivity to compound", "setting": "Breast T-47D CL5014", "result": 1},
      {"measurement": "classification of cell line as Low(1), Medium(2), High(3) sensitivity to compound", "setting": "CNS SF-268 CL12014", "result": 2},
      {"measurement": "classification of cell line as Low(1), Medium(2), High(3) sensitivity to compound", "setting": "CNS SF-295 CL12015", "result": 3},
      {"measurement": "classification of cell line as Low(1), Medium(2), High(3) sensitivity to compound", "setting": "CNS SF-539 CL12016", "result": 3},
      {"measurement": "classification of cell line as Low(1), Medium(2), High(3) sensitivity to compound", "setting": "CNS SNB-19 CL12002", "result": 1},
      {"measurement": "classification of cell line as Low(1), Medium(2), High(3) sensitivity to compound", "setting": "CNS SNB-75(I) CL12005", "result": 2},
      {"measurement": "classification of cell line as Low(1), Medium(2), High(3) sensitivity to compound", "setting": "CNS U251(I) CL12009", "result": 2},
      {"measurement": "classification of cell line as Low(1), Medium(2), High(3) sensitivity to compound", "setting": "Colon COLO-250 CL4010", "result": 1},
      {"measurement": "classification of cell line as Low(1), Medium(2), High(3) sensitivity to compound", "setting": "Colon HCC-2998 CL4002", "result": 2},
      {"measurement": "classification of cell line as Low(1), Medium(2), High(3) sensitivity to compound", "setting": "Colon HCT-15 CL4015", "result": 2},
      {"measurement": "classification of cell line as Low(1), Medium(2), High(3) sensitivity to compound", "setting": "Colon HCT-116 CL4003", "result": 2},
      {"measurement": "classification of cell line as Low(1), Medium(2), High(3) sensitivity to compound", "setting": "Colon HT29(I) CL4001", "result": 2},
      {"measurement": "classification of cell line as Low(1), Medium(2), High(3) sensitivity to compound", "setting": "Colon KM12 CL4017", "result": 2},
      {"measurement": "classification of cell line as Low(1), Medium(2), High(3) sensitivity to compound", "setting": "Colon SW-620 CL4009", "result": 2},
      {"measurement": "classification of cell line as Low(1), Medium(2), High(3) sensitivity to compound", "setting": "Leukemia CCRF-CEM(I) CL7003", "result": 3},
      {"measurement": "classification of cell line as Low(1), Medium(2), High(3) sensitivity to compound", "setting": "Leukemia HL-60(I) CL7008", "result": 3},
      {"measurement": "classification of cell line as Low(1), Medium(2), High(3) sensitivity to compound", "setting": "Leukemia K562(I) CL7005", "result": 2},
      {"measurement": "classification of cell line as Low(1), Medium(2), High(3) sensitivity to compound", "setting": "Leukemia MOLT-4 CL7006", "result": 3},
      {"measurement": "classification of cell line as Low(1), Medium(2), High(3) sensitivity to compound", "setting": "Leukemia RPMI-8226(I) CL7010", "result": 3},
      {"measurement": "classification of cell line as Low(1), Medium(2), High(3) sensitivity to compound", "setting": "Leukemia SR CL7019", "result": 3},
      {"measurement": "classification of cell line as Low(1), Medium(2), High(3) sensitivity to compound", "setting": "Melanoma LOX IMVI CL10001", "result": 2},
      {"measurement": "classification of cell line as Low(1), Medium(2), High(3) sensitivity to compound", "setting": "Melanoma M14 CL10014", "result": 2},
      {"measurement": "classification of cell line as Low(1), Medium(2), High(3) sensitivity to compound", "setting": "Melanoma MALME-3M CL10002", "result": 2},
      {"measurement": "classification of cell line as Low(1), Medium(2), High(3) sensitivity to compound", "setting": "Melanoma SK-MEL-2 CL10005", "result": 1},
      {"measurement": "classification of cell line as Low(1), Medium(2), High(3) sensitivity to compound", "setting": "Melanoma SK-MEL-5 CL10007", "result": 2},
      {"measurement": "classification of cell line as Low(1), Medium(2), High(3) sensitivity to compound", "setting": "Melanoma SK-MEL-28 CL10008", "result": 1},
      {"measurement": "classification of cell line as Low(1), Medium(2), High(3) sensitivity to compound", "setting": "Melanoma UACC-62 CL10020", "result": 3},
      {"measurement": "classification of cell line as Low(1), Medium(2), High(3) sensitivity to compound", "setting": "Melanoma UACC-257 CL10021", "result": 1},
      {"measurement": "classification of cell line as Low(1), Medium(2), High(3) sensitivity to compound", "setting": "NSCLC A549/ATCC CL1004", "result": 2},
      {"measurement": "classification of cell line as Low(1), Medium(2), High(3) sensitivity to compound", "setting": "NSCLC EKVX CL1008", "result": 1},
      {"measurement": "classification of cell line as Low(1), Medium(2), High(3) sensitivity to compound", "setting": "NSCLC HOP-62 CL1026", "result": 2},
      {"measurement": "classification of cell line as Low(1), Medium(2), High(3) sensitivity to compound", "setting": "NSCLC HOP-92 CL1029", "result": 2},
      {"measurement": "sensitivity classification Low(1)/Medium(2)/High(3)", "setting": "NSCLC NCI-H23(I) CL1001", "result": 2},
      {"measurement": "classification of cell line as Low(1), Medium(2), High(3) sensitivity to compound", "setting": "NSCLC NCI-H226 CL1013", "result": 2},
      {"measurement": "sensitivity classification Low(1)/Medium(2)/High(3)", "setting": "NSCLC NCI-H332M CL1017", "result": 1},
      {"measurement": "sensitivity classification Low(1)/Medium(2)/High(3)", "setting": "NSCLC NCI-H460 CL1021", "result": 3},
      {"measurement": "sensitivity classification Low(1)/Medium(2)/High(3)", "setting": "NSCLC NCI-H522 CL1003", "result": 2},
      {"measurement": "sensitivity classification Low(1)/Medium(2)/High(3)", "setting": "Ovarian IGROV1 CL6010", "result": 2},
      {"measurement": "sensitivity classification Low(1)/Medium(2)/High(3)", "setting": "Ovarian OVCAR-3 CL6001", "result": 2},
      {"measurement": "sensitivity classification Low(1)/Medium(2)/High(3)", "setting": "Ovarian OVCAR-4 CL6002", "result": 1},
      {"measurement": "sensitivity classification Low(1)/Medium(2)/High(3)", "setting": "Ovarian OVCAR-5 CL6003", "result": 2},
      {"measurement": "sensitivity classification Low(1)/Medium(2)/High(3)", "setting": "Ovarian OVCAR-8 CL6005", "result": 2},
      {"measurement": "sensitivity classification Low(1)/Medium(2)/High(3)", "setting": "Ovarian SK-OV-3 CL6011", "result": 1},
      {"measurement": "sensitivity classification Low(1)/Medium(2)/High(3)", "setting": "Prostate DU-145 CL11003", "result": 2},
      {"measurement": "sensitivity classification Low(1)/Medium(2)/High(3)", "setting": "Prostate PC-3(I) CL11001", "result": 2},
      {"measurement": "sensitivity classification Low(1)/Medium(2)/High(3)", "setting": "Renal 786-0 CL9018", "result": 2},
      {"measurement": "sensitivity classification Low(1)/Medium(2)/High(3)", "setting": "Renal A498 CL9013", "result": 2},
      {"measurement": "sensitivity classification Low(1)/Medium(2)/High(3)", "setting": "Renal ACHN CL9023", "result": 3},
      {"measurement": "sensitivity classification Low(1)/Medium(2)/High(3)", "setting": "Renal CAKI-1 CL9015", "result": 3},
      {"measurement": "sensitivity classification Low(1)/Medium(2)/High(3)", "setting": "Renal RXF-393 CL9016", "result": 2},
      {"measurement": "sensitivity classification Low(1)/Medium(2)/High(3)", "setting": "Renal SN12C CL9008", "result": 2},
      {"measurement": "sensitivity classification Low(1)/Medium(2)/High(3)", "setting": "Renal TK10 CL9024", "result": 1},
      {"measurement": "sensitivity classification Low(1)/Medium(2)/High(3)", "setting": "Renal UO-31 CL9004", "result": 2}
    ]}
  ]
}
